Results as given in article PMC7006637, “Design, synthesis and α-glucosidase inhibition study of novel embelin derivatives” (Journal of Enzyme Inhibition and Medicinal Chemistry, 2020).

Legend:
Assay type in all cases: biochemical, Saccharomyces cerevisiae
α-glucosidase [1] = experiment: α-glucosidase inhibition assay (PNPG substrate, OD 405 nm); conditions: for Inhibition rate: compound at 250 μM, 0.07 U/ml enzyme, 0.5 mM PNPG, pH 6.8, 37 °C; for α-glucosidase inhibitory activity (in words): SAR discussion; for IC50: more than eight concentrations, GraphPad Prism 7.0
Procedure: The α-glucosidase inhibitory activity was determined on a Thermo Scientific Multiskan GO Microplate Reader. All compounds were dissolved in DMSO. p-Nitrophenol glucoside (PNPG) as a substrate and α-glucosidase (from Saccharomyces cerevisiae) were used for the bioassay. First, 0.7 U/ml α-glucosidase solution and 1 mmol/L PNPG solution in 0.1 M PBS (pH 6.8) were prepared. Next, 35 µl of 0.1 M PBS (pH 6.8), 10 µl of 0.7 U/ml α-glucosidase solution (final concentration: 0.07 U/ml), and 5 µl of sample solution were added to the 96-well plate. The mixture was pre-incubated for 10 min at 37 °C. Then, 50 µl of 1 mM PNPG (final concentration: 0.5 mM) was rapidly added to initiate the reaction. Then the 96-well plate was quickly transferred into the microplate reader, incubated at 37 °C for 30 min (1 min shake + 9 min incubation, repeated 3 times). After that, 50 µl of 1 M of Na2CO3 solution was added to each well to stop the reaction. The 96-well plate was quickly transferred into the microplate reader and shaken for 30 s. In the blank reference group, 5 µl DMSO replaced the sample solution, other operations were the same. The OD value was measured at 405 nm. The inhibition rate was calculated by Equation (1). (1) Inhibition rate (%) = [(A0−A1)/A0] × 100 where A0 is the OD of the control, and A1 is the OD of the sample. […] The IC50 values were calculated by GraphPad Prism 7.0 software.

α-glucosidase [2] = experiment: Inhibition mechanism: enzyme activity versus enzyme concentration plots; conditions: constant PNPG 1 mM; α-glucosidase 0.00-1.05 U/ml
Procedure: The inhibition mechanism of 10d, 12d, and 15d was determined by the following method: A series of diluted inhibitor solutions was prepared, at constant PNPG concentration (1 mM). The inhibition rates were measured by the above method with different concentrations of α-glucosidase (0.00, 0.35, 0.7, and 1.05 U/ml). […] Because the chemical structures of compounds 9d and 10d are very similar, compound 10d was selected as a representative in the next mechanism studies. The inhibition mechanism of the selected compounds 10d, 12d, 15d, and embelin on α-glucosidase was investigated using PNPG as the substrate. The relationship between enzyme activity and concentration in the presence of different concentrations of selected compounds was studied. […] Therefore, the inhibition of compounds 10d, 12d, 15d, and embelin against α-glucosidase is reversible.

α-glucosidase [3] = experiment: Enzyme kinetic study, Lineweaver–Burk double-reciprocal plots; conditions: for Inhibition type: Lineweaver–Burk plots, PNPG 0.2-1 mM, enzyme 0.7 U/ml; for Ki: from plot of slope (Km/Vm) versus inhibitor concentration, PNPG substrate, read-out: Ki value (inhibitor binding with free enzyme)
Procedure: The inhibition type of the enzyme was assayed by Lineweaver–Burk plots. A series of diluted inhibitor solutions was prepared, at constant α-glucosidase concentration (0.7 U/ml). The inhibition rates were measured by the above method with different concentrations of PNPG (1, 0.5, 0.4, 0.3, 0.25, and 0.2 mM). […] The kinetic data were expressed by Lineweaver–Burk double-reciprocal plots. […] Thus, these compounds bind not only with the free α-glucosidase but also with the α-glucosidase-PNPG complex. In other words, they inhibit the function of α-glucosidase by not only directly binding to free enzyme (EI), but also by interfering with the formation of the α-glucosidase-PNPG (ES) intermediate through producing an α-glucosidase-PNPG-inhibitor (ESI) complex in a non-competitive manner. The inhibition constant for the inhibitor binding with free enzyme (Ki) was determined from a plot of the slope (Km/Vm) versus the inhibitor concentration (Figure 6(A2–D2)), and the inhibition constant for the inhibitor binding with enzyme–substrate complex (Kis) was obtained from the vertical intercept (1/Vm) versus the inhibitor concentration (Figure 6(A3–D3))[34]. The results are collected in Table 3: the Kis values of all of them are smaller than their Ki values, which mean that they have higher affinity with the enzyme-substrate complex than with the free enzyme.

Structure (SMILES) | Inhibition rate (α-glucosidase [1]) [%] | further results
CCCC1=C(OC)C(=O)C=C(OC)C1=O [Compound 4a] | 9.0 | –
CCCC1=C(O)C(=O)C=C(OC)C1=O [Compound 4b] | 10.4 | –
CCCC1=C(OC)C(OC)=CC(=O)C1=O [Compound 4c] | 14.9 | –
CCCC1=C(O)C(=O)C=C(O)C1=O [Compound 4d] | 18.1 | α-glucosidase inhibitory activity (in words) (α-glucosidase [1]): very low inhibitory effect
CCCCCC1=C(OC)C(=O)C=C(OC)C1=O [Compound 5a] | 11.5 | –
CCCCCC1=C(O)C(=O)C=C(OC)C1=O [Compound 5b] | 14.9 | –
CCCCCC1=C(OC)C(OC)=CC(=O)C1=O [Compound 5c] | 16.4 | –
CCCCCC1=C(O)C(=O)C=C(O)C1=O [Compound 5d] | 19.0 | α-glucosidase inhibitory activity (in words) (α-glucosidase [1]): very low inhibitory effect
CCCCCCCC1=C(OC)C(=O)C=C(OC)C1=O [Compound 6a] | 1.5 | –
CCCCCCCC1=C(O)C(=O)C=C(OC)C1=O [Compound 6b] | 5.4 | –
CCCCCCCC1=C(OC)C(OC)=CC(=O)C1=O [Compound 6c] | 16.1 | –
CCCCCCCC1=C(O)C(=O)C=C(O)C1=O [Compound 6d] | 80.8 | IC50 (α-glucosidase [1]): 127 µM
CCCCCCCCCC1=C(OC)C(=O)C=C(OC)C1=O [Compound 7a] | 13.5 | –
CCCCCCCCCC1=C(O)C(=O)C=C(OC)C1=O [Compound 7b] | 20.9 | –
CCCCCCCCCC1=C(OC)C(OC)=CC(=O)C1=O [Compound 7c] | 33.2 | –
CCCCCCCCCC1=C(O)C(=O)C=C(O)C1=O [Compound 7d] | 99.4 | IC50 (α-glucosidase [1]): 5.7 µM
CCCCCCCCCCCC1=C(OC)C(=O)C=C(OC)C1=O [Compound 8a] | 12.5 | –
CCCCCCCCCCCC1=C(O)C(=O)C=C(OC)C1=O [Compound 8b] | 12.0 | –
CCCCCCCCCCCC1=C(OC)C(OC)=CC(=O)C1=O [Compound 8c] | 0.6 | –
CCCCCCCCCCCC1=C(O)C(=O)C=C(O)C1=O [Embelin, 2,5-dihydroxy-3-undecyl-1,4-benzoquinone] | 100 | IC50 (α-glucosidase [1]): 4.2 µM; Inhibition mechanism (reversibility) (α-glucosidase [2]): reversible; Inhibition type (α-glucosidase [3]): Mixed-type; Ki (α-glucosidase [3]): 3.72 µM

Second part, led by results:

Inhibition rate (α-glucosidase [1]) [%] | Structure (SMILES) | further results
100 | CCCCCCCCCCCCCC1=C(O)C(=O)C=C(O)C1=O [Compound 9d] | IC50 (α-glucosidase [1]): 2.3 µM
100 | CCCCCCCCCCCCCCCC1=C(O)C(=O)C=C(O)C1=O [Compound 10d] | IC50 (α-glucosidase [1]): 1.8 µM; Inhibition mechanism (reversibility) (α-glucosidase [2]): reversible; Inhibition type (α-glucosidase [3]): Mixed-type; Ki (α-glucosidase [3]): 1.24 µM
1.5 | COC1=CC(=O)C(OC)=C(CCC(C)C)C1=O [Compound 11a] | –
2.6 | COC1=CC(=O)C(O)=C(CCC(C)C)C1=O [Compound 11b] | –
3.3 | COC1=CC(=O)C(=O)C(CCC(C)C)=C1OC [Compound 11c] | –
37.6 | CC(C)CCC1=C(O)C(=O)C=C(O)C1=O [Compound 11d] | –
100 | CC(C)CCCC(C)CCC1=C(O)C(=O)C=C(O)C1=O (centres unmarked) [Compound 12d] | IC50 (α-glucosidase [1]): 3.3 µM; Inhibition mechanism (reversibility) (α-glucosidase [2]): reversible; Inhibition type (α-glucosidase [3]): Mixed-type; Ki (α-glucosidase [3]): 3.71 µM
0 | COCCCC1=C(OC)C(=O)C=C(OC)C1=O [Compound 13a] | –
0 | COCCCC1=C(O)C(=O)C=C(OC)C1=O [Compound 13b] | –
0 | COCCCC1=C(OC)C(OC)=CC(=O)C1=O [Compound 13c] | –
0 | COCCCC1=C(O)C(=O)C=C(O)C1=O [Compound 13d] | –
70.1 | COC1=CC(=O)C(OC)=C(CCC2CCCCC2)C1=O [Compound 14a] | –
71.1 | COC1=CC(=O)C(O)=C(CCC2CCCCC2)C1=O [Compound 14b] | –
74.7 | COC1=CC(=O)C(=O)C(CCC2CCCCC2)=C1OC [Compound 14c] | –
85.2 | O=C1C=C(O)C(=O)C(CCC2CCCCC2)=C1O [Compound 14d] | IC50 (α-glucosidase [1]): 45.3 µM
100 | O=C1C=C(O)C(=O)C(CCCCCCCc2ccccc2)=C1O [Compound 15d] | IC50 (α-glucosidase [1]): 3.6 µM; Inhibition mechanism (reversibility) (α-glucosidase [2]): reversible; Inhibition type (α-glucosidase [3]): Mixed-type; Ki (α-glucosidase [3]): 2.4 µM
6.0 | COC1=CC(=O)C(OC)=C(Cc2ccc3ccccc3c2)C1=O [Compound 16a] | –
4.3 | COC1=CC(=O)C(O)=C(Cc2ccc3ccccc3c2)C1=O [Compound 16b] | –
37.2 | COC1=CC(=O)C(=O)C(Cc2ccc3ccccc3c2)=C1OC [Compound 16c] | –
81.4 | O=C1C=C(O)C(=O)C(Cc2ccc3ccccc3c2)=C1O [Compound 16d] | IC50 (α-glucosidase [1]): 74.8 µM
5.1 | COC1=CC(=O)C(OC)=C(Cc2ccc(-c3ccccc3)cc2)C1=O [Compound 17a] | –
14.3 | COC1=CC(=O)C(O)=C(Cc2ccc(-c3ccccc3)cc2)C1=O [Compound 17b] | –
59.7 | COC1=CC(=O)C(=O)C(Cc2ccc(-c3ccccc3)cc2)=C1OC [Compound 17c] | –
99.5 | O=C1C=C(O)C(=O)C(Cc2ccc(-c3ccccc3)cc2)=C1O [Compound 17d] | IC50 (α-glucosidase [1]): 11.2 µM
